Assay results published in ChEMBL document CHEMBL1649182, “Binding of faropenem and other beta-lactam agents to penicillin-binding proteins of pneumococci with various beta-lactam susceptibilities” (Antimicrob Agents Chemother, 2009).
Converted amounts (≈) assume the structure as drawn.

Columns and labels:
[1] = Displacement of Biocillin FL from Streptococcus pneumoniae 3413 PBP1B
[2] = target: T1, Penicillin-binding protein 1A (Streptococcus pneumoniae serotype 4 (strain ATCC BAA-334 / TIGR4), UniProt Q04707); assay: Displacement of Biocillin FL from Streptococcus pneumoniae 3009 PBP1A
T1 sequence (Q04707 whole entry): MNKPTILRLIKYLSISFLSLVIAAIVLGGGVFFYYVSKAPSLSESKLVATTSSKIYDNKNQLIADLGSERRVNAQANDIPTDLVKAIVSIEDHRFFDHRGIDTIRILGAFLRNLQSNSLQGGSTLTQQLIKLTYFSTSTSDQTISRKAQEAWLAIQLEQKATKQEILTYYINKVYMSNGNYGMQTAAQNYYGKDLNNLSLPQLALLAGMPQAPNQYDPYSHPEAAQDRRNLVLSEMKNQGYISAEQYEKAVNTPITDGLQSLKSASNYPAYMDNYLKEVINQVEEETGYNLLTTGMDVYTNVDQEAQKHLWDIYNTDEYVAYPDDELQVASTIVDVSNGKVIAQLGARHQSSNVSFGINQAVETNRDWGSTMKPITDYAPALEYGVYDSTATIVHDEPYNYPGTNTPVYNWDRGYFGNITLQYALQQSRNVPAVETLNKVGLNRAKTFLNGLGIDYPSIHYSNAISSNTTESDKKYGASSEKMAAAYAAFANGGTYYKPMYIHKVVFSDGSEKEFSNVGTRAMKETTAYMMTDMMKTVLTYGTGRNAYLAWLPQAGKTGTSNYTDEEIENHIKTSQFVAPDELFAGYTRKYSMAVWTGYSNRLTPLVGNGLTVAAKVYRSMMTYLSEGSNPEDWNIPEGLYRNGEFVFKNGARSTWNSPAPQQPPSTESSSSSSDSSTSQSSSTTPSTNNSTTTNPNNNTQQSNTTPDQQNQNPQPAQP

[3] = target: T2, Penicillin-binding protein 2x (Streptococcus pneumoniae serotype 4 (strain ATCC BAA-334 / TIGR4), UniProt P14677); assay: Displacement of Biocillin FL from Streptococcus pneumoniae 1077 PBP2X
T2 sequence (P14677 whole entry): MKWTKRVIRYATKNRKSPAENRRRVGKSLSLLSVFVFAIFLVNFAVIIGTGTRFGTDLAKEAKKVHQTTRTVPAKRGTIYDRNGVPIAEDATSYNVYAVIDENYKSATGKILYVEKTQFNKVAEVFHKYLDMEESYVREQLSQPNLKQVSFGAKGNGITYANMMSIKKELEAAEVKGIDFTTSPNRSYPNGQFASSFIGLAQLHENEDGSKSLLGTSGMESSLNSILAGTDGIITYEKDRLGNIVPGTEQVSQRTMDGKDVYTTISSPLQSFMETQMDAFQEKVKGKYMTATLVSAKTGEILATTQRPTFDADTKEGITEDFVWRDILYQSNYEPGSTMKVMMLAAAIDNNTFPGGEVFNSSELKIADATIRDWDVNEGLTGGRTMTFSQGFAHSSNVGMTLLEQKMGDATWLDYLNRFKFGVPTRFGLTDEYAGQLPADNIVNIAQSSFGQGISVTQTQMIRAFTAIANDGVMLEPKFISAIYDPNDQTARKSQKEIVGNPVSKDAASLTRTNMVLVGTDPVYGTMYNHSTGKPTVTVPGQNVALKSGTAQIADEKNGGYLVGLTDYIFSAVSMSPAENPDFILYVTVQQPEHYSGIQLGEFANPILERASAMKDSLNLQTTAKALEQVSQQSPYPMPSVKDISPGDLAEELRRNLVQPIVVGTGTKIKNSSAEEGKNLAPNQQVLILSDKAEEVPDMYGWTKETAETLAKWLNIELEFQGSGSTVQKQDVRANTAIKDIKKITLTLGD

[4] = target: T2, Penicillin-binding protein 2x; assay: Displacement of Biocillin FL from Streptococcus pneumoniae 3009 PBP2X
[5] = Displacement of Biocillin FL from Streptococcus pneumoniae 3676 PBP1B
[6] = target: T2, Penicillin-binding protein 2x; assay: Displacement of Biocillin FL from Streptococcus pneumoniae 3676 PBP2X
[7] = Displacement of Biocillin FL from Streptococcus pneumoniae 3243 PBP3
[8] = target: T1, Penicillin-binding protein 1A; assay: Displacement of Biocillin FL from Streptococcus pneumoniae 1077 PBP1A
[9] = Displacement of Biocillin FL from Streptococcus pneumoniae 3009 PBP3
[10] = Displacement of Biocillin FL from Streptococcus pneumoniae 3009 PBP1B
[11] = target: T3, Penicillin-binding protein 2B (Streptococcus pneumoniae serotype 4 (strain ATCC BAA-334 / TIGR4), UniProt P0A3M5); assay: Displacement of Biocillin FL from Streptococcus pneumoniae 24 PBP2B
T3 sequence (P0A3M5 whole entry): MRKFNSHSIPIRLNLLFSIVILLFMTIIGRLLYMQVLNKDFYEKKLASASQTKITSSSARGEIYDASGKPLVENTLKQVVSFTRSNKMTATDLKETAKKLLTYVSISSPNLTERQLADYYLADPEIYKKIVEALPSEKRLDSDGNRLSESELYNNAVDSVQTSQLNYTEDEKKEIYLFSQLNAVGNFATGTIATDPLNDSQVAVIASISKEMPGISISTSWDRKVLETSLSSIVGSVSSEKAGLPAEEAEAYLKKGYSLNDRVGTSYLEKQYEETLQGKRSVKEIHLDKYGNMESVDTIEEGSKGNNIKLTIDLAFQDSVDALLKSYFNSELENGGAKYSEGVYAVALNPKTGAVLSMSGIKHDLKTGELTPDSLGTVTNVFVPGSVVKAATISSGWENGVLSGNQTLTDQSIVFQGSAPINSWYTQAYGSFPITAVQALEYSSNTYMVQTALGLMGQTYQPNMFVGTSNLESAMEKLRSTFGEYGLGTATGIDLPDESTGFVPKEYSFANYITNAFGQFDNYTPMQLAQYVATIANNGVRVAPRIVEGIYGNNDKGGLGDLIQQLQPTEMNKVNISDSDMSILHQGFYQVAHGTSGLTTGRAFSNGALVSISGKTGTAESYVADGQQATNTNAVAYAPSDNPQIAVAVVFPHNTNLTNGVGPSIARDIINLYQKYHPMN

[12] = target: T3, Penicillin-binding protein 2B; assay: Displacement of Biocillin FL from Streptococcus pneumoniae 3676 PBP2B
[13] = tested on: Streptococcus pneumoniae; assay: Antimicrobial activity against penicillin-sensitive Streptococcus pneumoniae 1076 by CLSI method; assay type: functional
[14] = target: T1, Penicillin-binding protein 1A; assay: Displacement of Biocillin FL from Streptococcus pneumoniae 3676 PBP1A
[15] = target: T3, Penicillin-binding protein 2B; assay: Displacement of Biocillin FL from Streptococcus pneumoniae 3243 PBP2B
[16] = Displacement of Biocillin FL from Streptococcus pneumoniae 1077 PBP1B
[17] = Displacement of Biocillin FL from Streptococcus pneumoniae 1076 PBP1B
[18] = target: T3, Penicillin-binding protein 2B; assay: Displacement of Biocillin FL from Streptococcus pneumoniae 1076 PBP2B
[19] = target: T2, Penicillin-binding protein 2x; assay: Displacement of Biocillin FL from Streptococcus pneumoniae 1076 PBP2X
[20] = Displacement of Biocillin FL from Streptococcus pneumoniae 24 PBP2X
[21] = Displacement of Biocillin FL from Streptococcus pneumoniae 3413 PBP3

SMILES	IC50 [1]	IC50 [2]	IC50 [3]	IC50 [4]	IC50 [5]	IC50 [6]	IC50 [7]	IC50 [8]	IC50 [9]	IC50 [10]	IC50 [11]	IC50 [12]	MIC [13]	IC50 [14]	IC50 [15]	IC50 [16]	IC50 [17]	IC50 [18]	IC50 [19]	IC50 [20]	other results
CC1(C)S[C@@H]2[C@H](NC(=O)[C@H](N)c3ccc(O)cc3)C(=O)N2[C@H]1C(=O)O [AMOXICILLIN]	0.035 µg/mL (≈ 0.0958 µM)	246 nM	60.2 nM	21.9 nM	0.116 µg/mL (≈ 0.317 µM)	118 nM	0.006 µg/mL (≈ 0.0164 µM)	46.5 nM	0.047 µg/mL (≈ 0.129 µM)	0.059 µg/mL (≈ 0.161 µM)	482 nM	394 nM	0.016 µg/mL (≈ 0.0438 µM)	1150 nM	79.4 nM	0.006 µg/mL (≈ 0.0164 µM)	0.068 µg/mL (≈ 0.186 µM)	151 nM	101 nM	0.117 µg/mL (≈ 0.32 µM)	IC50 [21]: 0.029 µg/mL (≈ 0.0794 µM)
CO/N=C(\C(=O)N[C@@H]1C(=O)N2C(C(=O)O)=C(COC(N)=O)CS[C@H]12)c1ccco1 [CEFUROXIME]	0.032 µg/mL (≈ 0.0754 µM)	23.6 nM	14.1 nM	0.0943 nM	0.038 µg/mL (≈ 0.0895 µM)	47.1 nM	0.023 µg/mL (≈ 0.0542 µM)	386 nM	0.024 µg/mL (≈ 0.0566 µM)	0.024 µg/mL (≈ 0.0566 µM)	89.5 nM	1110 nM	0.03 µg/mL (≈ 0.0707 µM)	18.9 nM	54.2 nM	0.008 µg/mL (≈ 0.0189 µM)	0.008 µg/mL (≈ 0.0189 µM)	403 nM	4.71 nM	0.198 µg/mL (≈ 0.467 µM)	IC50 [21]: 0.004 µg/mL (≈ 0.00943 µM)
C[C@@H](O)[C@H]1C(=O)N2C(C(=O)O)=C([C@H]3CCCO3)S[C@H]12 [FAROPENEM]	0.019 µg/mL (≈ 0.0666 µM)	35 nM	687 nM	214 nM	0.005 µg/mL (≈ 0.0175 µM)	59.6 nM	0.004 µg/mL (≈ 0.014 µM)	52.6 nM	0.006 µg/mL (≈ 0.021 µM)	0.002 µg/mL (≈ 0.00701 µM)	116 nM	151 nM	0.03 µg/mL (≈ 0.105 µM)	87.6 nM	45.6 nM	0.005 µg/mL (≈ 0.0175 µM)	0.002 µg/mL (≈ 0.00701 µM)	45.6 nM	221 nM	0.758 µg/mL (≈ 2.66 µM)	IC50 [21]: 0.003 µg/mL (≈ 0.0105 µM)
C[C@@H](O)[C@H]1C(=O)N2C(C(=O)O)=C(SCCNC=N)C[C@H]12 [IMIPENEM ANHYDROUS]	0.316 µg/mL (≈ 1.06 µM)	86.9 nM	598 nM	334 nM	0.182 µg/mL (≈ 0.608 µM)	130 nM	0.095 µg/mL (≈ 0.317 µM)	174 nM	0.039 µg/mL (≈ 0.13 µM)	0.009 µg/mL (≈ 0.0301 µM)	441 nM	1320 nM	0.008 µg/mL (≈ 0.0267 µM)	838 nM	220 nM	0.106 µg/mL (≈ 0.354 µM)	0.031 µg/mL (≈ 0.104 µM)	237 nM	197 nM	2.048 µg/mL (≈ 6.84 µM)	IC50 [21]: 0.195 µg/mL (≈ 0.651 µM)
CC1(C)S[C@@H]2[C@H](NC(=O)Cc3ccccc3)C(=O)N2[C@H]1C(=O)O [PENICILLIN G]	0.205 µg/mL (≈ 0.613 µM)	26.9 nM	23.9 nM	32.9 nM	0.021 µg/mL (≈ 0.0628 µM)	83.7 nM	0.007 µg/mL (≈ 0.0209 µM)	26.9 nM	0.001 µg/mL (≈ 0.00299 µM)	0.001 µg/mL (≈ 0.00299 µM)	332 nM	789 nM	0.03 µg/mL (≈ 0.0897 µM)	35.9 nM	182 nM	0.005 µg/mL (≈ 0.015 µM)	0.007 µg/mL (≈ 0.0209 µM)	179 nM	29.9 nM	0.323 µg/mL (≈ 0.966 µM)	IC50 [21]: 0.01 µg/mL (≈ 0.0299 µM)
